# Calls of active or inactive are those of the source.
# What was measured:
# [1] = Fluorescence-based cell-based high throughput dose response assay for inhibitors of the interaction of nucleotide-binding oligomerization domain containing 2 (NOD2) and the receptor-interacting serine-threonine kinase 2 (RIPK2).; type: functional; conditions: Homo sapiens
# [2] = target: T1, ATP-dependent translocase ABCB1 (Homo sapiens, UniProt P08183); assay: ABCG2 efflux pump inhibitor potency, dose response, Ig-MXP3 cells, JC-1, flow cytometry, set 2 (AID 504566); type: functional; conditions: read-out: EC50_MICROM_;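 note: flow cytometry median green fluorescence of retained JC-1 dye; potency of efflux pump inhibition measured as rising substrate retention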
# [3] = target: T1, ATP-dependent translocase ABCB1; assay: ABCB1 efflux inhibitor potency, dose response, Jurkat-DNR cells, JC-1, flow cytometry, set 2 (AID 504569); type: functional; conditions: read-out: EC50_MICROM_;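 note: potency of pump inhibitors that raise cellular JC-1 green fluorescence up to the nicardipine level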
# [4] = cytotoxicity in HPDE-C7 cells, cell-based, fluorescence, HTS (AID 430); type: functional; conditions: Homo sapiens
# [5] = cytotoxicity in KRAS-transformed pancreatic duct cells, primary screen, cell-based, fluorescence, HTS (AID 431); type: functional; conditions: Homo sapiens;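 note: cell line used: HPDE-C7K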
# [6] = enhancers of respiration in Yfh1-depleted yeast, dose response, Friedreich's ataxia, plus single-dose screen (AID 1465); type: functional;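 note: yeast depleted of Yfh1p frataxin homolog grown on glycerol needing respiration; WST-1 tetrazolium dye reduction as measure of cellular dehydrogenase metabolic activity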
# Vero [7] = assay: cells; type: functional, cell-based; conditions: Chlorocebus sabaeus
# H9c2 = assay: cells; type: functional, cell-based; conditions: Rattus norvegicus, H9c2, Myocardium;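 note: confirmatory concentration-response retest of ultra-high-throughput screening hits for modulation of myocardial damage; cell death induced by hydrogen peroxide oxidative stress; compound pretreatment for 60 min then peroxide exposure for 2 h; potency is for protecting the cells against peroxide damage rather than for killing them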
# Vero [8] = assay: cells; type: functional, Chlorocebus sabaeus
# [9] = target: Aryl hydrocarbon receptor (Homo sapiens, UniProt P35869); conditions: Potency;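 note: confirmatory quantitative high-throughput screen measuring activation of the AhR signaling pathway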
# [10] = target: T2, Polyadenylate-binding protein 1 (Homo sapiens, UniProt P11940); assay: PABP1 MLLE–PAM2 interaction inhibitors, dose response, miRNA deadenylation inhibitor project, biochemical, fluorescence polarization, Cy5-PAM2 peptide, secondary (AID 602260); type: functional; conditions: read-out: IC50_Mean
# [11] = target: T2, Polyadenylate-binding protein 1; assay: PABP1 MLLE–PAM2 binding inhibitor potency, dose response, biochemical, fluorescence polarization, FITC-PAM2 peptide (AID 602259); type: functional; conditions: read-out: IC50_Mean
# [12] = target: Nuclear receptor subfamily 5 group A member 2 (Homo sapiens, UniProt O00482); type: functional, cell-based;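 note: HEK293T cells transfected with LRH-1 and a StAR promoter luciferase reporter; potency for inhibitors that lower LRH-1 driven reporter light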
# Steroidogenic factor 1 = Steroidogenic factor 1 (Homo sapiens, UniProt Q13285); assay: Counterscreen for inverse agonists of the liver receptor homolog-1 (LRH-1; NR5A2): Luminescence-based cell-based high throughput dose response assay to identify inverse agonists of the Steroidogenic Factor 1 Nuclear Receptor (SF1; NR5A1).; type: functional
# [13] = StAR promoter reporter inhibition counter-screen, dose response, counter-screen for LRH-1 inverse agonist project, cell-based, luminescence, luciferase reporter (AID 651969); type: functional
# [14] = target: T3, Mitochondrial peptide methionine sulfoxide reductase (Bos taurus, UniProt P54149); type: functional;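 for IC50: absorbance read-out, biochemical high-throughput dose-response screen for MsrA inhibitors, confirmatory; recombinant bovine MsrA coupled to E. coli TrxB with NADPH and selenocystamine; potency is for inhibitors of MsrA activity on DMSO substrate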
# Caspase-3 = target: T4, Caspase-3 (Homo sapiens, UniProt P42574); type: functional;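 note: Dose-response selectivity test against caspase-3 for candidate inhibitors of sentrin-specific proteases (SENPs)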
# T4 sequence (P42574 whole entry): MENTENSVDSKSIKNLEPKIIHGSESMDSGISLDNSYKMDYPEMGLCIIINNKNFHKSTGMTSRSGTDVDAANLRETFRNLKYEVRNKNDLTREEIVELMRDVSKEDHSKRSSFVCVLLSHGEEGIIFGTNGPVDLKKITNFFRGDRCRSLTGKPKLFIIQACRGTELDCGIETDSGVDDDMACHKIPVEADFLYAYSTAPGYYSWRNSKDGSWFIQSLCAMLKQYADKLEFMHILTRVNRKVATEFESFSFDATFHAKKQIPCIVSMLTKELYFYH
# [15] = target: T5, Sentrin-specific protease 7 (Homo sapiens, UniProt Q9BQF6); type: functional;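 note: Luminescence-based dose-response confirmation of ultra-high-throughput screening hits, measuring inhibition of SENP7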
# T5 sequence (Q9BQF6 whole entry): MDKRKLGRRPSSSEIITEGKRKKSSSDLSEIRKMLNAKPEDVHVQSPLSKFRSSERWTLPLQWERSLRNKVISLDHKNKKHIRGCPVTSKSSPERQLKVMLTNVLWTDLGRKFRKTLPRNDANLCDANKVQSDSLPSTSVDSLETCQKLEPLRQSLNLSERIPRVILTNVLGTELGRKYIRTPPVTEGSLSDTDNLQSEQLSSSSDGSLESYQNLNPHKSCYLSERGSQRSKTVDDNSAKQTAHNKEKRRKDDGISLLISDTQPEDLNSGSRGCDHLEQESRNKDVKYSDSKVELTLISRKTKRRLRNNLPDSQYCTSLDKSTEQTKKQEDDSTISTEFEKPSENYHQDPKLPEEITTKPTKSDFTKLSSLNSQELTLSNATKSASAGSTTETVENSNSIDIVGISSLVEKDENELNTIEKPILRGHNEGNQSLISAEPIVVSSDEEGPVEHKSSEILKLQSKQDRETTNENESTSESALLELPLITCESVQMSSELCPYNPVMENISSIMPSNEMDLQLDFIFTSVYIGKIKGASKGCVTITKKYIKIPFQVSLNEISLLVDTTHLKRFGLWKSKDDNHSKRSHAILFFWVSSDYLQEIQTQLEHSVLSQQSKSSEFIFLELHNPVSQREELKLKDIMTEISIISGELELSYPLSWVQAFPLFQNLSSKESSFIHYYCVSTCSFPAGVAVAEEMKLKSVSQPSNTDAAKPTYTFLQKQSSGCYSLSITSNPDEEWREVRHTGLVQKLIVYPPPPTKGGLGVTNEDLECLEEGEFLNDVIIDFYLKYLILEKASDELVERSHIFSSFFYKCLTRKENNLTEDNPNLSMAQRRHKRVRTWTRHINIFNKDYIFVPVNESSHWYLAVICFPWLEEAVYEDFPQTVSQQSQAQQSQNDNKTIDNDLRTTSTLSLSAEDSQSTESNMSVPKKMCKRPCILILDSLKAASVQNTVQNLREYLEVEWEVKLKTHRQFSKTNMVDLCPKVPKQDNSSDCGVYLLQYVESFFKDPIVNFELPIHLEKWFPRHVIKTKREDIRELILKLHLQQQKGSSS
# [16] = target: T6, Sentrin-specific protease 6 (Homo sapiens, UniProt Q9GZR1); type: functional;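 note: Luminescence-based dose-response confirmatory assay of SENP6 inhibition, following up an ultra-high-throughput screen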
# T6 sequence (Q9GZR1 whole entry): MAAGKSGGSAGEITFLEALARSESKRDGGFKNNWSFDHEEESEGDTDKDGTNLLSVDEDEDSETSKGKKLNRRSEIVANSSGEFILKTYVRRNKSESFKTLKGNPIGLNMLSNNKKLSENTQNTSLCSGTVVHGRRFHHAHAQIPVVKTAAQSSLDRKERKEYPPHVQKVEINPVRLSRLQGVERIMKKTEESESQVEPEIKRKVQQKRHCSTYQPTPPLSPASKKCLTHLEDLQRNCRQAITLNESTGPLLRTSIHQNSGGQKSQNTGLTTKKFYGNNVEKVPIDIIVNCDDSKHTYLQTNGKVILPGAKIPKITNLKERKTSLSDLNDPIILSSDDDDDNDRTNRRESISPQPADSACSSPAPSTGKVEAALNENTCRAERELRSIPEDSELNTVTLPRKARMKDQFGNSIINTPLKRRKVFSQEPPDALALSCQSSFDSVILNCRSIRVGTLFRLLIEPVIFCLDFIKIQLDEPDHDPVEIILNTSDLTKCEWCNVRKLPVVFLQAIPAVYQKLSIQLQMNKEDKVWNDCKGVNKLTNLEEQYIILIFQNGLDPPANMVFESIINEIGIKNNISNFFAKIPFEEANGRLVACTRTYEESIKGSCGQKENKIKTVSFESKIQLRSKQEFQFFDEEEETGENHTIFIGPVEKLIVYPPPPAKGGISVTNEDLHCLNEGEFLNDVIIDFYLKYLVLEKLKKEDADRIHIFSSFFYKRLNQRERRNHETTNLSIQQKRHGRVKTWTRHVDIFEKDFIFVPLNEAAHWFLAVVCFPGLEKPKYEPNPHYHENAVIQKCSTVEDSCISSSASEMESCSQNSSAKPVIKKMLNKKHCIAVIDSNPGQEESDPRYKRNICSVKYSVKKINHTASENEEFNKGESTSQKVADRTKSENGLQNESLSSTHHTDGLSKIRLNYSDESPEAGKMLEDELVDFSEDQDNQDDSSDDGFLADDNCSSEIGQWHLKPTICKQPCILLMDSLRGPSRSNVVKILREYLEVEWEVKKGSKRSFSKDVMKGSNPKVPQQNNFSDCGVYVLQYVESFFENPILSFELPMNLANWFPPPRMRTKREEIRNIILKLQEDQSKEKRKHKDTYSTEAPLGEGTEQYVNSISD
# [17] = target: T7, Sentrin-specific protease 8 (Homo sapiens, UniProt Q96LD8); type: functional;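 note: luminescence read-out of SENP8 inhibition, dose-response confirmation following an ultra-high-throughput screen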
# T7 sequence (Q96LD8 whole entry): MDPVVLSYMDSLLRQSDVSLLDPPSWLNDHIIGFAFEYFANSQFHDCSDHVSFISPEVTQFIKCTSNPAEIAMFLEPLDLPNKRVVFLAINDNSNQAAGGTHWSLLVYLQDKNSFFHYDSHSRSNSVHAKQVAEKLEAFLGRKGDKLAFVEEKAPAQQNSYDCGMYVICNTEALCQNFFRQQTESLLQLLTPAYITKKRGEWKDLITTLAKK
# [18] = target: Heat shock protein HSP 90-alpha (Homo sapiens, UniProt P07900); type: functional, organism-based
# [19] = target: T3, Mitochondrial peptide methionine sulfoxide reductase; assay: Absorbance-based biochemical high throughput dose response assay for activators of Methionine sulfoxide reductase A (MsrA).; type: functional
# Caspase-6 = target: T8, Caspase-6 (Homo sapiens, UniProt P55212); assay: human caspase-6 inhibitors, dose response, biochemical, VEID-R110 fluorescence, cherry-pick (AID 720632)
# T8 sequence (P55212 whole entry): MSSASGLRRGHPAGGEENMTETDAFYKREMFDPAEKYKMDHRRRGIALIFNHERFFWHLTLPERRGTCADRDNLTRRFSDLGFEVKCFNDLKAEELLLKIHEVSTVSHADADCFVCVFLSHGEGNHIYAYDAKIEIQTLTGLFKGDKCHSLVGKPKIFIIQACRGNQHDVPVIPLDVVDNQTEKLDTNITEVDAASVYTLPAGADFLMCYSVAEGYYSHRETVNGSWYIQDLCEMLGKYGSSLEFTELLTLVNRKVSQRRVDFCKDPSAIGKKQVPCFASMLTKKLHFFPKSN
# Caspase-9 = Caspase-9 (Homo sapiens, UniProt P55211); assay: caspase-9 enzyme inhibition, dose response, selectivity assay for caspase-6 inhibitor project, biochemical, fluorescence, plate reader, cherry-picked samples (AID 743293)
# Caspase-7 = target: T9, Caspase-7 (Homo sapiens, UniProt P55210); assay: human caspase-7 inhibitors, dose response, selectivity assay for caspase-6 inhibitor project, biochemical, DEVD-R110 fluorescence, cherry-pick (AID 743295)
# T9 sequence (P55210 whole entry): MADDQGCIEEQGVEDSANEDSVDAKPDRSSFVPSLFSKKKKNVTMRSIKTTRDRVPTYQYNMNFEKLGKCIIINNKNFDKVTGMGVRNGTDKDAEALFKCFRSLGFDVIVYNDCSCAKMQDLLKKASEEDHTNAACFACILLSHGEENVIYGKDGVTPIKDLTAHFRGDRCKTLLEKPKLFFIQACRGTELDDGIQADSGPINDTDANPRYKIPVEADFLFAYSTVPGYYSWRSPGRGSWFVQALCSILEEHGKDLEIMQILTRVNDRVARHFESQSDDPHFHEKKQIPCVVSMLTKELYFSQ
# Caspase-8 = Caspase-8 (Homo sapiens, UniProt Q14790); assay: caspase-8 inhibition counter-screen, dose response, selectivity assay for caspase-6 inhibitor project, biochemical, Z-IETD-R110 fluorescence, cherry-picked samples (AID 743294)
# Caspase-8, sequence (Q14790 217-374 limits assumed): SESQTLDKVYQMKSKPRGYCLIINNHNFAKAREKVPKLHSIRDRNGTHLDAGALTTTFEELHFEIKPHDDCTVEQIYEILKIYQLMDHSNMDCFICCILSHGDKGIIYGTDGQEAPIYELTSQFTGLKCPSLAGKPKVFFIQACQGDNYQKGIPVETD
# Caspase-8, sequence (Q14790 385-479 limits assumed): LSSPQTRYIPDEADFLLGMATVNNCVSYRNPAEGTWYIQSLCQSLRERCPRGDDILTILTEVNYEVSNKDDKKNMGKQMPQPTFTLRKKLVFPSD
# T1 sequence (P08183 whole entry): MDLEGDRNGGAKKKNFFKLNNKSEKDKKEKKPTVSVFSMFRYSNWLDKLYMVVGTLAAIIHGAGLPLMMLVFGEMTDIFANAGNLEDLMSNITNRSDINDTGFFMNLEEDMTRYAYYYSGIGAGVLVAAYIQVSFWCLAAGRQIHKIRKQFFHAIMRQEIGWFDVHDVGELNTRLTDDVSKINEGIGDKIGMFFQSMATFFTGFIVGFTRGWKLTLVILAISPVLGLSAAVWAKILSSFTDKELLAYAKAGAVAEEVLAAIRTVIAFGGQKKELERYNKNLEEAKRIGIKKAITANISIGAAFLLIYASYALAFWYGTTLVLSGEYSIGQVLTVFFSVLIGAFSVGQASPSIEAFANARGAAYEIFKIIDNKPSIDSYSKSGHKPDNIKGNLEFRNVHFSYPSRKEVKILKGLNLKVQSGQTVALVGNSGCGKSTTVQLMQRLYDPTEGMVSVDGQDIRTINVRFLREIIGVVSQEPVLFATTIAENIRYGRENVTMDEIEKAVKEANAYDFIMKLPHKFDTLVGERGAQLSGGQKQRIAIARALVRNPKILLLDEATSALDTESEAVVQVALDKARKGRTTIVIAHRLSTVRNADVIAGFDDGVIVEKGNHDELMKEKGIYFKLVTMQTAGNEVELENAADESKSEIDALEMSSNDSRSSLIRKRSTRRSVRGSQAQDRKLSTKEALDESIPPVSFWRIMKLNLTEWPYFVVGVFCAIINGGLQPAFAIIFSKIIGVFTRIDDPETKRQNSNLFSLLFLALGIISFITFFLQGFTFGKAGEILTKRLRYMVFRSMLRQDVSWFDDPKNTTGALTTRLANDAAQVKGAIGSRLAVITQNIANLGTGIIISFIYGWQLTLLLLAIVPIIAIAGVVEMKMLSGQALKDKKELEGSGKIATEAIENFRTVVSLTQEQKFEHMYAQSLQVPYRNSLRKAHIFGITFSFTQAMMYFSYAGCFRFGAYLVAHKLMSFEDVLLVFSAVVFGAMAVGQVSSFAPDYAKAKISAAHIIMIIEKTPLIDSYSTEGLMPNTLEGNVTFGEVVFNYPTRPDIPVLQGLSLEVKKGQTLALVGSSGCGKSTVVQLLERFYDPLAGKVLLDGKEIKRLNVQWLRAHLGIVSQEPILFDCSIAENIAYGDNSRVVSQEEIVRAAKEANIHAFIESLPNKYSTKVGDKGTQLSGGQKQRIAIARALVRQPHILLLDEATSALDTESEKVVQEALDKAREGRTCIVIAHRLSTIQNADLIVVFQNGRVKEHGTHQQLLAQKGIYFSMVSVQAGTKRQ
# T3 sequence (P54149 whole entry): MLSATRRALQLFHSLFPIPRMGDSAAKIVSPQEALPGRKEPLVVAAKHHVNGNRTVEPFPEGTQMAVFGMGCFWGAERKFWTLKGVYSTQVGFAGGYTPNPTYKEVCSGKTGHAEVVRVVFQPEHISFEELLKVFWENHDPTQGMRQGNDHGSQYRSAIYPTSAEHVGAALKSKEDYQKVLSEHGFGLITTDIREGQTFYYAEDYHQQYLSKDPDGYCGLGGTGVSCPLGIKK
# T2 sequence (P11940 whole entry): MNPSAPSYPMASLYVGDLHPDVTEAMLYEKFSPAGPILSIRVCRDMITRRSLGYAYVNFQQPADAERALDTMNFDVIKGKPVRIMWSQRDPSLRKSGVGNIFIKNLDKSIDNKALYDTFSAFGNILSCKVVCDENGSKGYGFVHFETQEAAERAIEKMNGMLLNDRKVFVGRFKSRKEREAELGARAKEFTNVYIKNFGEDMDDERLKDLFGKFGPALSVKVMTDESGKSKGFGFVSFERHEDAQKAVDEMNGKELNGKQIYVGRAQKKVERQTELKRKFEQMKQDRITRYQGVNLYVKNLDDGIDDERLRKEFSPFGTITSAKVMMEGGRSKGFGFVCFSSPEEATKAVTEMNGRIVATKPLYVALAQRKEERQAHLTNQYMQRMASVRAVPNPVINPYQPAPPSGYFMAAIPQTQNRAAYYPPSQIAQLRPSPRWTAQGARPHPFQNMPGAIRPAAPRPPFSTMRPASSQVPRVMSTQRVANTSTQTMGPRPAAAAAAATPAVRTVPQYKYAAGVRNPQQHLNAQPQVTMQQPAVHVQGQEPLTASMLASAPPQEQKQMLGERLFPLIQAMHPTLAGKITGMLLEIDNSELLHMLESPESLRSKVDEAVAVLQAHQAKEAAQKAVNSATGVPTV
# Aryl hydrocarbon receptor, sequence (P35869 whole entry): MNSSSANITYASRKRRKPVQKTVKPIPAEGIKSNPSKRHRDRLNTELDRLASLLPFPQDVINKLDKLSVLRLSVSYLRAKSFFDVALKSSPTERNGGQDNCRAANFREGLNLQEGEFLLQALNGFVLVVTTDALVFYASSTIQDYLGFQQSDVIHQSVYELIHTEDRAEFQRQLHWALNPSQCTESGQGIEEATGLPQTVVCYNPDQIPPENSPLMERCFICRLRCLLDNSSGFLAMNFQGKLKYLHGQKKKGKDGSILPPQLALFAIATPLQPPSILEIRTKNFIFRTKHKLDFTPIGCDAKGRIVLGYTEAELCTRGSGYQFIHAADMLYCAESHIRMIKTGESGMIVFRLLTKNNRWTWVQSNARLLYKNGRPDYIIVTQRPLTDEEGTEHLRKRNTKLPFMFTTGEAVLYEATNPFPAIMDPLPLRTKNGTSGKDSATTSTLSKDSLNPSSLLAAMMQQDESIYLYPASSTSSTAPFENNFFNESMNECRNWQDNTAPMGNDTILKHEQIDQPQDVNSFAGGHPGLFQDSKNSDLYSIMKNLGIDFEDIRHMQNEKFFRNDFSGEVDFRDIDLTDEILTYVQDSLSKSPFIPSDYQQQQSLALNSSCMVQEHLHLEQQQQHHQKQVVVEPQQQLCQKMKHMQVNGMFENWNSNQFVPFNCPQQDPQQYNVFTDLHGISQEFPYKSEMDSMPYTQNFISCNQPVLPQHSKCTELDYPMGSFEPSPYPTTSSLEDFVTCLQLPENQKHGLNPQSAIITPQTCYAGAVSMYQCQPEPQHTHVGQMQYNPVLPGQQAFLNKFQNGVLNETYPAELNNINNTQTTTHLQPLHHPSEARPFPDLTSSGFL
# Steroidogenic factor 1, sequence (Q13285 whole entry): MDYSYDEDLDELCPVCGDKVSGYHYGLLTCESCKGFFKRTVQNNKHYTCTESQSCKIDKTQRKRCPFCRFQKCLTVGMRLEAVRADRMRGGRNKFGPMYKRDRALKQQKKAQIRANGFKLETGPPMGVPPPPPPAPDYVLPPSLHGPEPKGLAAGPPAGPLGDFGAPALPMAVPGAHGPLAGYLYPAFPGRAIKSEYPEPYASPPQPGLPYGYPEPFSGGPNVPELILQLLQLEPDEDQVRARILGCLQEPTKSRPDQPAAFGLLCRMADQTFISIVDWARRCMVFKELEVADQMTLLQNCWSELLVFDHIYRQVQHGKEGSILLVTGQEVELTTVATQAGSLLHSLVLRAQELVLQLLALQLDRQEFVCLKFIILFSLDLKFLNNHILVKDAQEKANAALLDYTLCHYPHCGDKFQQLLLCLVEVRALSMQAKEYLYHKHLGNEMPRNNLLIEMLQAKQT
# Caspase-9, sequence (P55211 1-315 limits assumed): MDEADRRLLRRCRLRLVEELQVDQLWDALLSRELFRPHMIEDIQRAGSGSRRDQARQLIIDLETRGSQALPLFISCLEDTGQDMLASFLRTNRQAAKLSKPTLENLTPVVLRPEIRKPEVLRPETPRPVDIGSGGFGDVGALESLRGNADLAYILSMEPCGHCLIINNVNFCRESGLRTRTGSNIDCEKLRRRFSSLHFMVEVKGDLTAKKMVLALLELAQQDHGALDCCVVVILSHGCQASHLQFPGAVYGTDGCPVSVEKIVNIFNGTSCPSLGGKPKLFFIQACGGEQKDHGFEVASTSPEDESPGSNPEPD
# Caspase-9, sequence (P55211 331-416 limits assumed): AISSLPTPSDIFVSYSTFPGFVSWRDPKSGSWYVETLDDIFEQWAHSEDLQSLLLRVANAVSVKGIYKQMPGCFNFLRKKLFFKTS
# Nuclear receptor subfamily 5 group A member 2, sequence (O00482 whole entry): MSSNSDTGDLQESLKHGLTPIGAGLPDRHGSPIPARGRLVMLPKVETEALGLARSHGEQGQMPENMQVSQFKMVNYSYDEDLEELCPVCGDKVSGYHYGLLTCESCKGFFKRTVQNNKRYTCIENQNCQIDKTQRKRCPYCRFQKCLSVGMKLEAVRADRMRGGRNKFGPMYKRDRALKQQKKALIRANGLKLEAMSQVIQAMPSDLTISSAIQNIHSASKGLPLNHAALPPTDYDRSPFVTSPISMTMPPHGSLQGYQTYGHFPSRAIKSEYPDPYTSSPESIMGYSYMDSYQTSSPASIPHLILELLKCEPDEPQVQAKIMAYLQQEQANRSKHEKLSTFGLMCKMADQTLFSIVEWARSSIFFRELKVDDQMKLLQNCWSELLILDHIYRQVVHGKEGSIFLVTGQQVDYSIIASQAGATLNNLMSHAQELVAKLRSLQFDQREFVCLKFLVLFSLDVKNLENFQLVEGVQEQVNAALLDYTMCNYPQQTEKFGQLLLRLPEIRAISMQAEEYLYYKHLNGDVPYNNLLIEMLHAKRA
compound,measurement,setting,value
COc1ccc(C2=CC(=O)N(Nc3ccccc3)C2=O)cc1,IC50,[1],4.21 µM (active)
O=C(c1ccco1)N1CCN(c2cc(-c3ccccc3)nc3cc(-c4ccc(F)cc4)nn23)CC1,EC50,[2],1.05 µM (active)
same,EC50,[3],3.4 µM (active)
COc1cc(/C=C/C(=O)CC(=O)/C=C/c2ccc(O)c(OC)c2)ccc1O [CURCUMIN],EC50,[4],13.1 µM (active)
same,EC50,[5],6.97 µM (active)
same,EC50,[6],> 100 µM (active)
same,IC50,Vero [7],> 25 µM (active)
same,IC50,H9c2,> 79 µM (inactive)
same,CC50,Vero [8],19.5 µM (active)
same,CC50,"Vero [8]; Chlorocebus sabaeus, Vero",19.9 µM (active)
same,AC50,[9],56.2 µM (inconclusive)
O=C(CSc1nnc(CNC(=O)c2ccccc2F)o1)Nc1ccc2c(c1)OCCO2,IC50,[10],> 66 µM (inactive)
same,IC50,[11],> 66 µM (inactive)
same,IC50,[12],17.6 µM (inactive)
same,IC50,Steroidogenic factor 1,1.56 µM (active)
same,IC50,[13],35.9 µM (inactive)
Cc1ccccc1/C=N/n1c(S)nnc1C1CCCCC1,IC50,[14],155 µM (inactive)
COc1ccccc1NC(=O)COC(=O)c1ccc([N+](=O)[O-])s1,IC50,Caspase-3,11.5 µM (active)
same,IC50,[15],7.35 µM (active)
same,IC50,[16],4.94 µM (active)
same,IC50,[17],3.83 µM (active)
same,AC50,[18],6.12 µM (active)
same,EC50,[19],39.4 µM (inactive)
same,AC50,Caspase-6,1.95 µM (active)
same,AC50,Caspase-9,23.7 µM (active)
same,AC50,Caspase-7,16.4 µM (active)
same,AC50,Caspase-8,22 µM (active)

# — ChEMBL document CHEMBL1201862, “PubChem BioAssay data set” (2004)
